Test results published in patent EP0908457B1, “3-(1,2-benzisothiazol- and isoxazol-5-Y1)-2,4(1H,3H)-pyrimidinedione or thione and 3-(1,2-benzisothiazol- and isoxazol-5-y1)-4(3H)-pyrimidinone or thione herbicidal agents” (BASF AKTIENGESELLSCHAFT, priority 1997, dated 1999).

Key:
[1] = system: Echinochloa oryzoides (Ard.) Fritsch.; assay: Preemergence weed control under flooded paddy conditions, ECHORC (Watergrass (Calif.)); assay type: in vivo; conditions: flooded paddy; as to herbicidal effect rating, ECHORC: meaning of each grade not given here
[2] = system: Oryza sativa, (L.) Tebonnet; assay: Rice tolerance to post-transplant applications under flooded paddy conditions (Example 187), ORYSAT (Rice, Tebonnet); conditions: rated three to four weeks after treatment
[3] = system: Cyperus iria; assay: Preemergence weed control under flooded paddy conditions, CYPIR (Rice Flatsedge); assay type: in vivo; conditions: flooded paddy; as to herbicidal effect rating, CYPIR: meaning of each grade not given here
[4] = system: Sagittaria pygmaea, L.; assay: Preemergence weed control under flooded paddy conditions, SAGPY (Arrowhead (Pygmaea)); assay type: in vivo; conditions: flooded paddy; as to herbicidal effect rating, SAGPY: meaning of each grade not given here
[5] = system: Monochoria vaginalis, Presl.; assay: Preemergence weed control under flooded paddy conditions, MOOVA (Monochoria); assay type: in vivo; conditions: flooded paddy; as to herbicidal effect rating, MOOVA: meaning of each grade not given here
[6] = system: Cyperus serotinus, Rottb.; assay: Preemergence weed control under flooded paddy conditions, CYPSE (Flatsedge); assay type: in vivo; as to herbicidal effect rating, CYPSE: meaning of each grade not given here
[7] = 0.1250 kg/ha, preemergence, rated three to four weeks after treatment
[8] = 0.2500 kg/ha, preemergence, rated three to four weeks after treatment
[9] = Rate 0.0320 kg/ha, preemergence, rated 3-4 weeks after treatment
[10] = Rate 0.0620 kg/ha, preemergence, rated 3-4 weeks after treatment
[11] = Rate 0.1250 kg/ha, preemergence, rated 3-4 weeks after treatment
[12] = Rate 0.2500 kg/ha, preemergence, rated 3-4 weeks after treatment
[13] = 0.0313 kg/ha, preemergence weeds, rated three to four weeks after treatment
[14] = 0.0625 kg/ha, preemergence weeds, rated three to four weeks after treatment
[15] = 0.1250 kg/ha, preemergence weeds, rated three to four weeks after treatment
[16] = 0.2500 kg/ha, preemergence weeds, rated three to four weeks after treatment
[17] = 0.0320 kg/ha, preemergence, rated three to four weeks after treatment
[18] = 0.0620 kg/ha, preemergence, rated three to four weeks after treatment
[19] = Rate 0.0320 kg/ha, preemergence, rated three to four weeks after treatment
[20] = Rate 0.0620 kg/ha, preemergence, rated three to four weeks after treatment
[21] = Rate 0.1250 kg/ha, preemergence, rated three to four weeks after treatment
[22] = Rate 0.2500 kg/ha, preemergence, rated three to four weeks after treatment

Cc1ccc(OCC(=O)OC2CCCC2)c(-c2nsc3ccc(-n4c(=O)cc(C(F)(F)F)n(C)c4=O)cc23)c1 [Example 84, Cyclopentyl {{2-{5-[3,6-dihydro-3-methyl-2,6-dioxo-4-(trifluoromethyl)-1(2H)-pyrimidinyl]-1,2-benzisothiazol-3-yl}-p-tolyl}oxy}acetate] was tested, and the “herbicidal effect rating, ECHORC” value ([1]; 0.0313 kg/ha, preemergence, rated three to four weeks after treatment) was 9.0, the “herbicidal effect rating, ECHORC” value ([1]; 0.0625 kg/ha, preemergence, rated three to four weeks after treatment) was 9.0 and the “herbicidal effect rating, ECHORC” value [1, 7] was 9.0. The “herbicidal effect rating, ECHORC” value [1, 8] was 9.0, the “herbicidal effect rating, ORYSAT (rice tolerance)” value (from here on “herbicidal effect rating, ORYSAT”) ([2]; 0.0313 kg/ha) was 3.0 and the “herbicidal effect rating, ORYSAT” value ([2]; 0.0625 kg/ha) was 3.0. For the same compound, the “herbicidal effect rating, ORYSAT” value ([2]; 0.1250 kg/ha) was 4.0 and the “herbicidal effect rating, ORYSAT” value ([2]; 0.2500 kg/ha) was 7.0.
With CC/C=C/CCCCCCCCCCOC(=O)COc1ccc(C)cc1-c1nsc2ccc(-n3c(=O)cc(C(F)(F)F)n(C)c3=O)cc12 [Example 526, Acetic acid, {{2-{5-[3,6-dihydro-3-methyl-2,6-dioxo-4-(trifluoromethyl)-1(2H)-pyrimidinyl]-1,2-benzisothiazol-3-yl}-p-tolyl}oxy}-, 11-tetradecenyl ester, (E)-] the “herbicidal effect rating, CYPIR” value [3, 9] was 2.0, the “herbicidal effect rating, CYPIR” value [3, 10] was 4.0 and the “herbicidal effect rating, CYPIR” value [3, 11] was 7.0. For the same compound, the “herbicidal effect rating, CYPIR” value [3, 12] was 9.0, the “herbicidal effect rating, SAGPY” value [4, 9] was 0.0 and the “herbicidal effect rating, SAGPY” value [4, 10] was 0.0. The “herbicidal effect rating, SAGPY” value [4, 11] was 0.0, the “herbicidal effect rating, SAGPY” value [4, 12] was 0.0 and the “herbicidal effect rating, MOOVA” value [5, 9] was 8.0. For the same compound, the “herbicidal effect rating, MOOVA” value [5, 10] was 9.0, the “herbicidal effect rating, MOOVA” value [5, 11] was 9.0 and the “herbicidal effect rating, MOOVA” value [5, 12] was 9.0. The “herbicidal effect rating, ECHORC” value [1, 9] was 2.0, the “herbicidal effect rating, ECHORC” value [1, 10] was 2.0 and the “herbicidal effect rating, ECHORC” value [1, 11] was 4.0. For the same compound, the “herbicidal effect rating, ECHORC” value [1, 12] was 6.0, the “herbicidal effect rating, CYPSE” value [6, 9] was 0.0 and the “herbicidal effect rating, CYPSE” value [6, 10] was 0.0. The “herbicidal effect rating, CYPSE” value [6, 11] was 0.0 and the “herbicidal effect rating, CYPSE” value [6, 12] was 0.0.
For COC(=O)C=CCOc1ccc(C)cc1-c1nsc2ccc(-n3c(=O)cc(C(F)(F)F)n(C)c3=O)cc12 [Example 188, Methyl 4-{{2-{5-[3,6-dihydro-3-methyl-2,6-dioxo-4-(trifluoromethyl)-1(2H)-pyrimidinyl]-1,2-benzisothiazol-3-yl}-p-tolyl}oxy}-2-butenoate, (E)- and (Z)-], the “herbicidal effect rating, CYPIR” value [3, 13] was 0.0, the “herbicidal effect rating, CYPIR” value [3, 14] was 0.0 and the “herbicidal effect rating, CYPIR” value [3, 15] was 0.0. The “herbicidal effect rating, CYPIR” value [3, 16] was 0.0, the “herbicidal effect rating, SAGPY” value [4, 13] was 0.0 and the “herbicidal effect rating, SAGPY” value [4, 14] was 0.0. For the same compound, the “herbicidal effect rating, SAGPY” value [4, 15] was 0.0, the “herbicidal effect rating, SAGPY” value [4, 16] was 0.0 and the “herbicidal effect rating, MOOVA” value [5, 13] was 9.0. The “herbicidal effect rating, MOOVA” value [5, 14] was 9.0, the “herbicidal effect rating, MOOVA” value [5, 15] was 9.0 and the “herbicidal effect rating, MOOVA” value [5, 16] was 9.0. The “herbicidal effect rating, ECHORC” value [1, 13] was 0.0, the “herbicidal effect rating, ECHORC” value [1, 14] was 0.0 and the “herbicidal effect rating, ECHORC” value [1, 15] was 2.0. For the same compound, the “herbicidal effect rating, ECHORC” value [1, 16] was 8.0 and the “herbicidal effect rating, CYPSE” value [6, 13] was 0.0.
In the case of COC(=O)C(C)Oc1cc(C)c(I)cc1-c1nsc2ccc(-n3c(=O)cc(C(F)(F)F)n(C)c3=O)cc12 (stereo not shown) [Example 470, Propionic acid, 2-{{6-{5-[3,6-dihydro-3-methyl-2,6-dioxo-4-(trifluoromethyl)-1(2H)-pyrimidinyl]-1,2-benzisothiazol-3-yl}-4-iodo-m-tolyl}oxy}-, methyl ester], the CYPIR herbicidal rating [3, 17] is reported as 0.0, the CYPIR herbicidal rating [3, 18] is reported as 0.0 and the CYPIR herbicidal rating [3, 7] is reported as 6.0. The CYPIR herbicidal rating [3, 8] was 7.0, the SAGPY herbicidal rating [4, 17] was 0.0 and the SAGPY herbicidal rating [4, 18] was 0.0. For the same compound, the SAGPY herbicidal rating [4, 7] was 0.0, the SAGPY herbicidal rating [4, 8] was 1.5 and the MOOVA herbicidal rating [5, 17] was 1.5. The MOOVA herbicidal rating [5, 18] was 2.0, the MOOVA herbicidal rating [5, 7] was 2.0 and the MOOVA herbicidal rating [5, 8] was 3.0. It also gave an ECHORC herbicidal rating [1, 17] of 8.5, an ECHORC herbicidal rating [1, 18] of 9.0 and an ECHORC herbicidal rating [1, 7] of 9.0. For the same compound, the ECHORC herbicidal rating [1, 8] was 9.0, the CYPSE herbicidal rating [6, 17] was 0.0 and the CYPSE herbicidal rating [6, 18] was 0.0. The CYPSE herbicidal rating [6, 7] was 0.0 and the CYPSE herbicidal rating [6, 8] was 4.5.
For Cn1c(C(F)(F)F)cc(=O)n(-c2ccc3snc(C(C#N)=Cc4ccccc4F)c3c2)c1=O [Example 605, 1,2-Benzisothiazole-3-acetonitrile, 5-[3,6-dihydro-3-methyl-2,6-dioxo-4-(trifluoromethyl)-1(2H)-pyrimidinyl]-alpha-(o-fluorobenzylidene)-], the “herbicidal effect rating, CYPIR” value [3, 19] was 1.0, the “herbicidal effect rating, CYPIR” value [3, 20] was 3.0 and the “herbicidal effect rating, CYPIR” value [3, 21] was 7.0. For the same compound, the “herbicidal effect rating, CYPIR” value [3, 22] was 7.0, the “herbicidal effect rating, SAGPY” value [4, 19] was 4.0 and the “herbicidal effect rating, SAGPY” value [4, 20] was 4.0. The “herbicidal effect rating, SAGPY” value [4, 21] was 5.0, the “herbicidal effect rating, SAGPY” value [4, 22] was 7.0 and the “herbicidal effect rating, MOOVA” value [5, 19] was 9.0. For the same compound, the “herbicidal effect rating, MOOVA” value [5, 20] was 9.0, the “herbicidal effect rating, MOOVA” value [5, 21] was 9.0 and the “herbicidal effect rating, MOOVA” value [5, 22] was 9.0. The “herbicidal effect rating, ECHORC” value [1, 19] was 4.0, the “herbicidal effect rating, ECHORC” value [1, 20] was 4.0 and the “herbicidal effect rating, ECHORC” value [1, 21] was 7.0. The “herbicidal effect rating, ECHORC” value [1, 22] was 7.0, the “herbicidal effect rating, CYPSE” value [6, 19] was 0.0 and the “herbicidal effect rating, CYPSE” value [6, 20] was 0.0. For the same compound, the “herbicidal effect rating, CYPSE” value [6, 21] was 0.0 and the “herbicidal effect rating, CYPSE” value [6, 22] was 0.0.
Compound Cn1c(C(F)(F)F)cc(=O)n(-c2ccc3snc(COC(=O)c4ccno4)c3c2)c1=O [Example 475, 2,4(1H,3H)-Pyrimidinedione, 3-[3-(hydroxymethyl)-1,2-benzisothiazol-5-yl]-1-methyl-6-(trifluoromethyl)-, 5-isoxazolecarboxylate (ester)] has a CYPIR herbicidal rating [3, 17] of 4.0, a CYPIR herbicidal rating [3, 18] of 6.0 and a CYPIR herbicidal rating [3, 7] of 9.0. The CYPIR herbicidal rating [3, 8] was 9.0, the SAGPY herbicidal rating [4, 17] was 0.0 and the SAGPY herbicidal rating [4, 18] was 4.0. It also gave an SAGPY herbicidal rating [4, 7] of 6.0, an SAGPY herbicidal rating [4, 8] of 7.0 and an MOOVA herbicidal rating [5, 17] of 9.0. It also gave an MOOVA herbicidal rating [5, 18] of 9.0, an MOOVA herbicidal rating [5, 7] of 9.0 and an MOOVA herbicidal rating [5, 8] of 9.0. The ECHORC herbicidal rating [1, 17] was 0.0, the ECHORC herbicidal rating [1, 18] was 0.0 and the ECHORC herbicidal rating [1, 7] was 2.0. The ECHORC herbicidal rating [1, 8] was 3.0, the CYPSE herbicidal rating [6, 17] was 0.0 and the CYPSE herbicidal rating [6, 7] was 5.0. The CYPSE herbicidal rating [6, 8] was 7.0.
CN(O)C(=O)c1nsc2ccc(-n3c(=O)cc(C(F)(F)F)n(C)c3=O)cc12 [Example 398, 1,2-Benzisothiazole-3-carbohydroxamic acid, 5-[3,6-dihydro-3-methyl-2,6-dioxo-4-(trifluoromethyl)-1(2H)-pyrimidinyl]-N-methyl-] was tested, and the “herbicidal effect rating, CYPIR” value [3, 19] was 0.0, the “herbicidal effect rating, CYPIR” value [3, 20] was 3.0 and the “herbicidal effect rating, CYPIR” value [3, 21] was 6.0. For the same compound, the “herbicidal effect rating, CYPIR” value [3, 22] was 8.0, the “herbicidal effect rating, SAGPY” value [4, 19] was 0.0 and the “herbicidal effect rating, SAGPY” value [4, 20] was 0.0. For the same compound, the “herbicidal effect rating, SAGPY” value [4, 21] was 0.0, the “herbicidal effect rating, SAGPY” value [4, 22] was 3.0 and the “herbicidal effect rating, MOOVA” value [5, 19] was 6.0. For the same compound, the “herbicidal effect rating, MOOVA” value [5, 20] was 9.0, the “herbicidal effect rating, MOOVA” value [5, 21] was 9.0 and the “herbicidal effect rating, MOOVA” value [5, 22] was 9.0. The “herbicidal effect rating, ECHORC” value [1, 19] was 0.0, the “herbicidal effect rating, ECHORC” value [1, 20] was 2.0 and the “herbicidal effect rating, ECHORC” value [1, 21] was 3.0. The “herbicidal effect rating, ECHORC” value [1, 22] was 8.0, the “herbicidal effect rating, CYPSE” value [6, 19] was 0.0 and the “herbicidal effect rating, CYPSE” value [6, 20] was 0.0. The “herbicidal effect rating, CYPSE” value [6, 21] was 3.0 and the “herbicidal effect rating, CYPSE” value [6, 22] was 3.0.
